Structures can show the parent of a compound that is named as a salt.
Molecular target: T1, human glycolate oxidase (hGO) (Homo sapiens, UniProt Q9UJM8)
T1 construct: His-tag (6 histidines, pET-15b) (N); made in house; host or cells: E. coli BL21 (DE3)
T1 sequence (Q9UJM8 1-370): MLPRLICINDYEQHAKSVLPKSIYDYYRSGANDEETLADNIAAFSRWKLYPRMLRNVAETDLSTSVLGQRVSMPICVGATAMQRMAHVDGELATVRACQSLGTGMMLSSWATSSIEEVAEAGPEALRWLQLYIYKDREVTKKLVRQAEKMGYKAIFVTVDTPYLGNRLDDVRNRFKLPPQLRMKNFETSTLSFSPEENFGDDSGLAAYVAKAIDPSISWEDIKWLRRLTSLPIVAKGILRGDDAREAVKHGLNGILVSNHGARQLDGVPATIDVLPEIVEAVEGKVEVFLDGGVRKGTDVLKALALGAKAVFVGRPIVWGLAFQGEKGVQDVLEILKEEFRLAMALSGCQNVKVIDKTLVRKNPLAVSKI
Assay: In vitro inhibition of human glycolate oxidase (enzymatic assay, HRP-coupled Trinder reaction);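 for % Inhibition: values are IC50 potency bins despite the % Inhibition label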
Format: biochemical
Settings: not given
Description: The catalytic reactions used for assaying glycolate oxidase activity in the presence of compounds according to the present disclosure are outlined in FIG. 2. Glycolate oxidase (GO)-catalyzed conversion of glycolate to glyoxylate (top reaction), with the concomitant reduction of the cofactor flavin mononucleotide (FMN), uses molecular oxygen (O2) for recovering its oxidative state, releasing hydrogen peroxide (H2O2). The Trinder reaction (bottom reaction), in which horseradish peroxidase (HRP) uses hydrogen peroxide, 4-aminoantipyrine and a phenol derivative (sulphonated DCIP) to generate a quinoneimine dye that is spectrophotometrically measured.
Human glycolate oxidase (hGO) expression. BL21 (DE3) E. coli transformed with recombinant pET-15b expression vector with the N-terminal His-tag human Hao1 cDNA was grown in LB medium in the presence of 0.1 mg/ml ampicillin. For purification of recombinant human glycolate oxidase (hGO) expressed in BL21 E. coli, bacteria pellets were thawed and re-suspended in 2 ml lysis buffer (50 mM NaH2PO4, 300 mM NaCl, 10 mM imidazole, 50 μM FMN, pH 7.5), and then treated for 30 minutes with 1 mM PMSF for protease inhibition, 0.1% Triton X-100 and 0.2 mg/ml lysozyme to break cellular membranes. After sonication, cells were centrifuged and the supernatant containing the total cellular extract (pre-column fraction) was loaded into a Ni-NTA agarose column and incubated for 30 minutes at 4° C. to allow binding of the 6 histidine tail of recombinant GO protein to the nickel ions. The column was washed with two bed volumes of lysis buffer with 20 mM imidazole to eliminate unbound proteins (wash fraction). GO was eluted using the same buffer with 300 mM imidazole. Fraction containing purified GO was dialyzed against 300 ml of dialysis buffer (50 mM NaH2PO4, 300 mM NaCl, pH 7.5) at 4° C. in agitation overnight, and then kept at 4° C. in darkness. Protein were quantified by the bicinchoninic acid (BCA) assay.
Enzymatic assays. Enzymatic activity of hGO was determined in the presence of glycolate as substrate (40 mM glycolic acid) and phosphate buffer (50 mM KPO4, 0.1 mM EDTA, pH 7). The production of glyoxylate was indirectly measured by the quantification of hydrogen peroxide formed during the first oxidation reaction. […] Enzymatic activity was calculated at 1 minute after initiation of the Trinder reaction.

IC50	Compound
0.1 to 0.2 µM	O=C(O)c1nn[nH]c1Oc1ccc(-c2ccccc2)cc1 [Example 42, 5-([1,1′-biphenyl]-4-yloxy)-1H-1,2,3-triazole-4-carboxylic Acid]
0.1 to 0.2 µM	O=C(O)c1nn[nH]c1Oc1ccc(C2CCCC2)cc1 [Example 69, 5-(4-cyclopentylphenoxy)-1H-1,2,3-triazole-4-carboxylic Acid]
0.1 to 0.2 µM	O=C(O)c1nn[nH]c1Sc1ccc(Br)cc1 [Example 52, 5-((4-bromophenyl)thio)-1H-1,2,3-triazole-4-carboxylic Acid]
< 0.1 µM	COc1ccc(Oc2[nH]nnc2C(=O)O)cc1 [Example 46, 5-(4-methoxyphenoxy)-1H-1,2,3-triazole-4-carboxylic Acid]
< 0.1 µM	Cc1cc(Oc2[nH]nnc2C(=O)O)ccc1Br [Example 71, 5-(4-bromo-3-methylphenoxy)-1H-1,2,3-triazole-4-carboxylic Acid]

Same assay, conditions: recombinant hGO, 40 mM glycolic acid, pH 7, read at 515 nm, 1 minute after initiation of Trinder reaction; read-out: % Inhibition

Compound	IC50
O=C(O)c1nn[nH]c1Oc1ccc(Br)c(C(F)(F)F)c1 [Example 95, 5-(4-bromo-3-(trifluoromethyl)phenoxy)-1H-1,2,3-triazole-4-carboxylic Acid]	> 0.2 µM
O=C(O)c1nn[nH]c1Oc1ccc(-c2ccc(-c3ccc(OC(F)F)cc3)cc2)cc1 [Example 17, 5-((4″-(difluoromethoxy)-[1,1′:4′,1″-terphenyl]-4-yl)oxy)-1H-1,2,3-triazole-4-carboxylic Acid]	> 0.2 µM
CC(C)c1ccc(-c2ccc(Oc3[nH]nnc3C(=O)O)c(F)c2)cc1 [Example 107, 5-((3-fluoro-4′-isopropyl-[1,1′-biphenyl]-4-yl)oxy)-1H-1,2,3-triazole-4-carboxylic Acid]	0.1 to 0.2 µM
Cc1cc(Oc2[nH]nnc2C(=O)O)ccc1-c1ccc(F)nc1C [Example 85, 5-(4-(6-fluoro-2-methylpyridin-3-yl)-3-methylphenoxy)-1H-1,2,3-triazole-4-carboxylic Acid]	0.1 to 0.2 µM
NC(=O)c1ccc(Oc2[nH]nnc2C(=O)O)cc1 [Example 56, 5-(4-carbamoylphenoxy)-1H-1,2,3-triazole-4-carboxylic Acid]	> 0.2 µM
O=C(O)c1nn[nH]c1Oc1cccnc1F [Example 57, 5-((2-fluoropyridin-3-yl)oxy)-1H-1,2,3-triazole-4-carboxylic Acid]	> 0.2 µM
O=C(O)c1nn[nH]c1Oc1ccc(C2CCC(F)(F)C2)cc1 (stereo not drawn) [Example 131, 5-(4-(3,3-Difluorocyclopentyl)phenoxy)-1H-1,2,3-triazole-4-carboxylic Acid]	0.1 to 0.2 µM
O=C(O)c1nn[nH]c1Oc1ccc(-c2ccc(C3CC(F)(F)C3)cc2)cc1 [Example 127, 5-((4′-(3,3-difluorocyclobutyl)-[1,1′-biphenyl]-4-yl)oxy)-1H-1,2,3-triazole-4-carboxylic Acid]	0.1 to 0.2 µM
Cc1cc(-c2ccc(-c3ccc(Oc4[nH]nnc4C(=O)O)cc3)cc2)ccn1 [Example 129, 5˜((4′-(2-methylpyridin-4˜yl)-[1,1′-biphenyl]-4-yl)oxy)-1H-1,2,3-triazole-4-carboxylic Acid]	0.1 to 0.2 µM
CC1(c2ccc(-c3ccc(Oc4[nH]nnc4C(=O)O)cc3)cc2)CC1 [Example 122, 5-((4′-(1-methylcyclopropyl)-[1,1′-biphenyl]-4-yl)oxy)-1H-1,2,3-triazole-4-carboxylic Acid]	0.1 to 0.2 µM
O=C(O)c1nn[nH]c1Oc1ccc(-c2ccc(C3CC3(F)F)cc2)cc1 (stereo not drawn) [Example 123, 5-((4′-(2,2-difluorocyclopropyl)-[1,1′-biphenyl]-4-yl)oxy)-1H-1,2,3-triazole-4-carboxylic Acid]	0.1 to 0.2 µM
O=C(O)c1nn[nH]c1Oc1ccc(-c2nccs2)cc1 [Example 25, 5-(4-(thiazol-2-yl)phenoxy)-1H-1,2,3-triazole-4-carboxylic Acid]	0.1 to 0.2 µM
O=C(O)c1nn[nH]c1Oc1ccc(F)cc1 [Example 9, 5-(4-fluorophenoxy)-1H-1,2,3-triazole-4-carboxylic Acid Sodium Salt]	> 0.2 µM

Other lines, results leading:

IC50	Compound
0.1 to 0.2 µM	CC(C)c1ccc(-c2cccc(Oc3[nH]nnc3C(=O)O)c2)cc1 [Example 111, 5-((4′-isopropyl-[1,1′-biphenyl]-3-yl)oxy)-1H-1,2,3-triazole-4-carboxylic Acid]
< 0.1 µM	Cc1ncc(-c2cccc(Oc3[nH]nnc3C(=O)O)c2)cn1 [Example 59, 5-(3-(2-methylpyrimidin-5-yl)phenoxy)-1H-1,2,3-triazole-4-carboxylic Acid]
< 0.1 µM	CS(=O)(=O)Nc1ccc(-c2ccc(Oc3[nH]nnc3C(=O)O)cc2)cc1 [Example 102, 5-((4′-(methylsulfonamido)-[1,1′-biphenyl]-4-yl)oxy)-1H-1,2,3-triazole-4-carboxylic Acid]
< 0.1 µM	O=C(O)c1nn[nH]c1Oc1ccc(C(F)(F)F)cc1 [Example 60, 5-(4-(trifluoromethyl)phenoxy)-1H-1,2,3-triazole-4-carboxylic Acid]
0.1 to 0.2 µM	O=C(O)c1nn[nH]c1Oc1ccc(-c2ncco2)cc1 [Example 26, 5-(4-(oxazol-2-yl)phenoxy)-1H-1,2,3-triazole-4-carboxylic Acid]
< 0.1 µM	O=C(O)c1nn[nH]c1Oc1ccc(-c2cccnc2Cl)cc1 [Example 93, 5-(4-(2-chloropyridin-3-yl)phenoxy)-1H-1,2,3-triazole-4-carboxylic Acid]
0.1 to 0.2 µM	O=C(O)c1nn[nH]c1Oc1ccc(-c2ccc(OC(F)F)cc2)cc1 [Example 39, 5-((4′-(difluoromethoxy)-[1,1′-biphenyl]-4-yl)oxy)-1H-1,2,3-triazole-4-carboxylic Acid]
< 0.1 µM	Cc1c(-c2ccc(Oc3[nH]nnc3C(=O)O)cc2)ccnc1F [Example 75, 5-(4-(2-fluoro-3-methylpyridin-4-yl)phenoxy)-1H-1,2,3-triazole-4-carboxylic Acid]
< 0.1 µM	O=C(O)c1nn[nH]c1Oc1ccc(-c2cccc(OC(F)F)c2)cc1 [Example 40, 5-((3′-(difluoromethoxy)-[1,1′-biphenyl]-4-yl)oxy)-1H-1,2,3-triazole-4-carboxylic Acid]
< 0.1 µM	O=C(O)c1nn[nH]c1Oc1ccc(-c2ccc(-c3ccncc3)cc2)cc1 [Example 15, 5-((4′-(pyridin-4-yl)-[1,1′-biphenyl]-4-yl)oxy)-1H-1,2,3-triazole-4-carboxylic Acid]
< 0.1 µM	O=C(O)c1nn[nH]c1Oc1ccc(-c2cc(F)cnc2Cl)cc1 [Example 99, 5-(4-(2-chloro-5-fluoropyridin-3-yl)phenoxy)-1H-1,2,3-triazole-4-carboxylic Acid]
< 0.1 µM	COc1cc(Oc2[nH]nnc2C(=O)O)ccc1Br [Example 89, 5-(4-bromo-3-methoxyphenoxy)-1H-1,2,3-triazole-4-carboxylic Acid]
< 0.1 µM	O=C(O)c1nn[nH]c1Oc1ccc(-c2ccn[nH]2)cc1 [Example 12, 5-(4-(1H-pyrazol-5-yl)phenoxy)-1H-1,2,3-triazole-4-carboxylic Acid]
< 0.1 µM	Cc1ncc(-c2ccc(Oc3[nH]nnc3C(=O)O)cc2)cn1 [Example 13, 5-(4-(2-methylpyrimidin-5-yl)phenoxy)-1H-1,2,3-triazole-4-carboxylic Acid]
< 0.1 µM	O=C(O)c1nn[nH]c1Oc1ccc(Br)c(Cl)c1 [Example 48, 5-(4-bromo-3-chlorophenoxy)-1H-1,2,3-triazole-4-carboxylic Acid]
< 0.1 µM	O=C(O)c1nn[nH]c1Oc1ccc(-c2cccnc2F)cc1F [Example 98, 5-(2-fluoro-4-(2-fluoropyridin-3-yl)phenoxy)-1H-1,2,3-triazole-4-carboxylic Acid]
< 0.1 µM	COc1ccc(-c2ccc(Oc3[nH]nnc3C(=O)O)cc2)cn1 [Example 100, 5-(4-(6-methoxypyridin-3-yl)phenoxy)-1H-1,2,3-triazole-4-carboxylic Acid]
< 0.1 µM	O=C(O)c1nn[nH]c1Oc1ccc(-c2ccc(-c3cccc(OC(F)F)c3)cc2)cc1 [Example 16, 5-((3″-(difluoromethoxy)-[1,1′:4′,1″-terphenyl]-4-yl)oxy)-1H-1,2,3-triazole-4-carboxylic Acid]

Reference: patent US11401246B2, “Triazole glycolate oxidase inhibitors” (CANTERO THERAPEUTICS, INC., priority 2018, dated 2022)
